From US7223759B2, “Antibacterial 3,5-diaminopiperidine-substituted aromatic and heteroaromatic compounds” (Anadys Pharmaceuticals, Inc., priority 2003, dated 2007) come the findings set out here.

The first assay relates to Escherichia coli (ATCC25922) or Staphylococcus aureus (ATCC25923). As to the kind of experiment: Antibacterial MIC, microdilution method in Mueller-Hinton medium. Conditions: Escherichia coli, 18 h, MIC in E. coli or S. aureus; two-fold serial dilutions 64 to 0.5 μg/ml in duplicate; 18 hours of incubation at 35° C.; read-out: Potency (MIC). The class given is cell-based. The procedure, abridged: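 Two-fold serial dilutions from 64 to 0.5 μg/ml, in duplicate, by broth microdilution in Mueller-Hinton medium (NCCLS M7-A5). MIC taken as the lowest concentration preventing visible growth after 18 h at 35° C.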
For `Cl.Nc1nc(Nc2ccc(Cl)c(Cl)c2)nc(C2C[C@@H](N)C[C@@H](N)C2)n1` (stereo partly drawn) [6-((3S,5R)-3,5-Diamino-piperidin-1-yl)-N-(3,4-dichlorro-phenyl)-[1,3,5]triazine-2,4-diamine], the minimum inhibitory concentration (MIC) was greater than 64 µg/mL.

On to `Cl.O=C(Oc1ccccc1)c1ccc(Nc2nc(N3CCCCC3)nc(N3CCCC3)n2)cc1O` [4-[4-((3S,5R)-3,5-Diamino-piperidin-1-yl)-6-((3R,4S)-3,4-dihydroxy-pyrrolidin-1-yl)-[1,3,5]triazin-2-ylamino]-2-hydrooxy-benzoic acidphenyl ester], for which the MIC is less than 64 µg/mL.

For the compound `Cc1cc(NS(=O)(=O)c2ccc(Nc3nc(N4C[C@H](N)C[C@H](N)C4)nc(N4C[C@H](N)C[C@H](N)C4)n3)cc2)nc(C)n1.Cl` [N-[4-(2,6-dimethyl-pyrimidin-4-ylsulfamoyl)-phenyl]-4,6-Bis-((3R,5S)-3,5-diamino-piperidin-1-yl)-[1,3,5]triazine-2-amine], the MIC is greater than 64 µg/mL.

As to `Cc1cc(Nc2nc(N3C[C@H](N)C[C@H](N)C3)nc(N3C[C@H](N)C[C@H](N)C3)n2)no1.Cl` [N-(5-methyl-isoxazol-3-yl)-4,6-Bis-((3R,5S)-3,5-diamino-piperidin-1-yl)-[1,3,5]triazine-2-amine], the MIC is greater than 64 µg/mL.

Take `Cl.N[C@@H]1C[C@H](N)CN(c2nc(Nc3ccccc3F)nc(N3C[C@H](N)C[C@H](N)C3)n2)C1` [N-(2-fluoro-phenyl)-4,6-Bis-((3R,5S)-3,5-diamino-piperidin-1-yl)-[1,3,5]triazine-2-amine]: the MIC was greater than 64 µg/mL.

Still in this assay, the particulars now being: Escherichia coli, 18 h, read-out: Potency (MIC).
Turning to `N[C@@H]1C[C@H](N)CN(c2nc(Nc3ccc(NC(=O)c4cc(Br)ccc4O)c(O)c3)nc(N3C[C@H](N)C[C@H](N)C3)n2)C1` [N-[4-(5-bromo-2-hydroxy-benzoylamino)-3-hydroxy-phenyl]-4,6-Bis-((3R,5S)-3,5-diamino-piperidin-1-yl)-[1,3,5]triazine-2-amine], the MIC is less than 16 µg/mL.

Take `N[C@@H]1C[C@H](N)CN(c2nc(Nc3ccc(C(=O)c4ccccc4)cc3)nc(N3C[C@H](N)C[C@H](N)C3)n2)C1` [N-(4-benzoyl-phenyl)-4,6-Bis-((3R,5S)-3,5-diamino-piperidin-1-yl)-[1,3,5]triazine-2-amine]: the MIC is less than 64 µg/mL.

With `N[C@@H]1C[C@H](N)CN(c2nc(Nc3ccc(NC(=O)c4cc(Cl)cnc4O)cc3)nc(N3C[C@H](N)C[C@H](N)C3)n2)C1` [N-{4-[(5-chloro-2-hydroxy-pyridine-3-carbonyl)-amino]-phenyl}-4,6-Bis-((3R,5S)-3,5-diamino-piperidin-1-yl)-[1,3,5]triazine-2-amine], the MIC was less than 64 µg/mL.

Take `N[C@@H]1C[C@H](N)CN(c2nc(Nc3ccc(C(=O)CC(=O)Nc4ccc(F)c(Cl)c4)cc3)nc(N3C[C@H](N)C[C@H](N)C3)n2)C1` [N-{4-[2-(3-chloro-4-fluoro-phenylcarbamoyl)-acetyl]-phenyl}-4,6-Bis-((3R,5S)-3,5-diamino-piperidin-1-yl)-[1,3,5]triazine-2-amine]: the minimal inhibitory concentration (MIC) was less than 16 µg/mL.

On to `Cc1ccc(C(=O)Nc2ccc(Nc3nc(N4C[C@H](N)C[C@H](N)C4)nc(N4C[C@H](N)C[C@H](N)C4)n3)c(C)c2)c(O)c1` [N-[4-(2-hydroxy-4-methyl-benzoylamino)-2-methyl-phenyl]-4,6-Bis-((3R,5S)-3,5-diamino-piperidin-1-yl)-[1,3,5]triazine-2-amine], for which the MIC is less than 64 µg/mL.

Take `COc1ccc(NC(=O)c2ccc(Nc3nc(N4C[C@H](N)C[C@H](N)C4)nc(N4C[C@H](N)C[C@H](N)C4)n3)cc2O)cc1` [N-[3-hydroxy-4-(4-methoxy-phenylcarbamoyl)-phenyl]-4,6-Bis-((3R,5S)-3,5-diamino-piperidin-1-yl)-[1,3,5]triazine-2-amine]: the MIC was less than 64 µg/mL.

On to `N[C@@H]1C[C@H](N)CN(c2nc(Nc3ccc(C(=O)Nc4ccc5c(c4)OC(F)(F)O5)c(O)c3)nc(N3C[C@H](N)C[C@H](N)C3)n2)C1` [N-[4-(2,2-difluoro-benzo[1,3]dioxol-5-ylcarbamoyl)-3-hydroxy-phenyl]-4,6-Bis-((3R,5S)-3,5-diamino-piperidin-1-yl)-[1,3,5]triazine-2-amine], for which the MIC is less than 16 µg/mL.

Take `NCCN(CCN)c1nc(Nc2ccc(NC(=O)C(=O)c3c[nH]c4ccccc34)c(O)c2)nc(N2C[C@H](N)C[C@H](N)C2)n1` [N-{4-[4-[Bis-(2-amino-ethyl)-amino]-6-((3R,5S)-3,5-diamino-piperidin-1-yl)-[1,3,5]triazin-2-ylamino]-2-hydroxy-phenyl}-2-(1H-indol-3-yl)-2-oxo-acetamide]: the MIC was less than 16 µg/mL.

Take `N[C@@H]1C[C@H](N)CN(c2nc(Nc3cccc(I)c3)nc(N3C[C@H](N)C[C@H](N)C3)n2)C1` [N-(3-Iodo-phenyl)-4,6-Bis-((3R,5S)-3,5-diamino-piperidin-1-yl)-[1,3,5]triazine-2-amine]: the minimal inhibitory concentration (MIC) was less than 64 µg/mL.

Take `NCCN(CCN)c1nc(Nc2ccc(NC(=O)c3ccc(Cl)cc3)c(O)c2)nc(N2C[C@H](N)C[C@H](N)C2)n1` [N-{4-[4-[Bis-(2-amino-ethyl)-amino]-6-((3R,5S)-3,5-diamino-piperidin-1-yl)-[1,3,5]triazin-2-ylamino]-2-hydroxy-phenyl}-4-chloro-benzamide]: the MIC is less than 64 µg/mL.

`COc1nc(Nc2ccc(NC(=O)c3ccc4ccccc4c3O)cc2)nc(N2C[C@H](N)C[C@H](N)C2)n1` [1-Hydroxy-naphthalene-2-carboxylic acid {4-[4-((3R,5S)-3,5-diamino-piperidin-1-yl)-6-methoxy-[1,3,5]triazin-2-ylamino]-phenyl}-amide]: the MIC is less than 16 µg/mL.

On to `CC(C)c1cc(C(=O)Nc2ccc(Nc3nc(N4C[C@H](N)C[C@H](N)C4)nc(N4C[C@H](N)C[C@H](N)C4)n3)cc2O)c(O)c(C(C)C)c1` [N-[3-hydroxy-4-(2-hydroxy-3,5-diisopropyl-benzoylamino)-phenyl]-4,6-Bis-((3R,5S)-3,5-diamino-piperidin-1-yl)-[1,3,5]triazine-2-amine], for which the MIC was less than 16 µg/mL.

For `N[C@@H]1C[C@H](N)CN(c2nc(Nc3ccc(NC(=O)c4ccccc4)c(O)c3)nc(N3C[C@H](N)C[C@H](N)C3)n2)C1` [N-(4-benzoylamino-3-hydroxy-phenyl)-4,6-Bis-((3R,5S)-3,5-diamino-piperidin-1-yl)-[1,3,5]triazine-2-amine], the minimal inhibitory concentration (MIC) is less than 16 µg/mL.

For the compound `N[C@@H]1C[C@H](N)CN(c2nc(NCCCn3ccnc3)nc(Nc3ccc(S(=O)(=O)Nc4ccc5cn[nH]c5c4)cc3)n2)C1` [4-[4-((3S,5R)-3,5-Diamino-piperidin-1-yl)-6-(3-imidazol-1-yl-propylamino)-[1,3,5]triazin-2-ylamino]-N-(1H-indazol-6-yl)-benzenesulfonamide], the MIC is greater than 64 µg/mL.

Take `CC(=O)c1ccc(Nc2nc(N3C[C@H](N)C[C@H](N)C3)nc(N3C[C@@H](O)[C@@H](O)C3)n2)cc1` [1-{4-[4-((3R,5S)-3,5-Diamino-piperidin-1-yl)-6-((3R,4S)-3,4-dihydroxy-pyrrolidin-1-yl)-[1,3,5]triazin-2-ylamino]-phenyl}-ethanone]: the MIC was greater than 64 µg/mL.

For `Nc1cncc(Nc2nc(N3C[C@H](N)C[C@H](N)C3)nc(N3C[C@H](N)C[C@H](N)C3)n2)c1` [N-(5-amino-pyridin-3-yl)-4,6-Bis-((3R,5S)-3,5-diamino-piperidin-1-yl)-[1,3,5]triazine-2-amine], the MIC was greater than 64 µg/mL.

With `Cc1cc(Nc2nc(N3C[C@H](N)C[C@H](N)C3)nc(N3C[C@H](N)C[C@H](N)C3)n2)ccc1NC(=O)c1cccc(C)c1O` [N-[4-(2-hydroxy-3-methyl-benzoylamino)-3-methyl-phenyl]-4,6-Bis-((3R,5S)-3,5-diamino-piperidin-1-yl)-[1,3,5]triazine-2-amine], the MIC is less than 64 µg/mL.

Turning to `COc1ccc(C(=O)Nc2ccc(Nc3nc(N4C[C@H](N)C[C@H](N)C4)nc(N4C[C@H](N)C[C@H](N)C4)n3)cc2)c(O)c1` [N-[4-(2-hydroxy-4-methoxy-benzoylamino)-phenyl]-4,6-Bis-((3R,5S)-3,5-diamino-piperidin-1-yl)-[1,3,5]triazine-2-amine], the MIC is greater than 64 µg/mL.

On to `Cc1cccc(C(=O)Nc2cccc(Nc3nc(N4C[C@H](N)C[C@H](N)C4)nc(N4C[C@H](N)C[C@H](N)C4)n3)c2)c1O` [N-[3-(2-hydroxy-3-methyl-benzoylamino)-phenyl]-4,6-Bis-((3R,5S)-3,5-diamino-piperidin-1-yl)-[1,3,5]triazine-2-amine], for which the MIC is less than 16 µg/mL.

Turning to `N[C@@H]1C[C@H](N)CN(c2nc(Nc3ccc(NC(=O)c4ccccc4Cl)c(O)c3)nc(N3C[C@H](N)C[C@H](N)C3)n2)C1` [N-[4-(2-chloro-benzoylamino)-3-hydroxy-phenyl]-4,6-Bis-((3R,5S)-3,5-diamino-piperidin-1-yl)-[1,3,5]triazine-2-amine], the MIC was less than 64 µg/mL.

The same assay, now with this note: MIC in E. coli or S. aureus; two-fold serial dilutions 64 to 0.5 μg/ml in duplicate; 18 hours of incubation at 35° C.
For the compound `NC[C@@H]1C[C@@H](O)CN1c1nc(Nc2ccc(S(=O)(=O)Nc3ccc4cn[nH]c4c3)cc2)nc(N2C[C@H](N)C[C@H](N)C2)n1` [4-[4-((2S,4R)-2-Aminomethyl-4-hydroxy-pyrrolidin-1-yl)-6-((3R,5S)-3,5-diamino-piperidin-1-yl)-[1,3,56]triazin-2-ylamino]-N-(1H-indazol-6-yl)-benzenesulfonamide], the “Potency (MIC)” value is given as “− (− means MIC>64 μg/ml in E. coli or S. aureus)”.

For the compound `Cc1ccc(S(=O)(=O)N(Cc2ccccc2)c2ccc(Nc3nc(N4C[C@H](N)C[C@H](N)C4)nc(N4CC[C@H](O)[C@@H]4CN)n3)c(O)c2)cc1`, the “Potency (MIC)” value is “+ (+ means MIC<64 μg/ml in E. coli or S. aureus)”.

On to `NC[C@H]1[C@@H](O)CCN1c1nc(Nc2ccc(C(=O)Oc3ccccc3)c(O)c2)nc(N2C[C@H](N)C[C@H](N)C2)n1` [4-[4-((2S,3S)-2-Aminomethyl-3-hydroxy-pyrrolidin-1-yl)-6-((3R,5S)-3,5-diamino-piperidin-1-yl)-[1,3,5]triazin-2-ylamino]-2-hydroxy-benzoic acidphenylester], for which the “Potency (MIC)” value is reported as “− (− means MIC>64 μg/ml in E. coli or S. aureus)”.
